Among the data in BindingDB's records for doi:10.1016/S0960-894X(00)80246-2 (1991) are IC50 values, retold here.

The assay can be described thus: Binding potency against SP receptor in bovine caudate using [3H]- as radioligand.

Structures are written as SMILES.

As to `Clc1ccccc1CN[C@H]1C2CCN(CC2)[C@H]1C(c1ccccc1)c1ccccc1`, the concentration for half-maximal inhibition (IC50) stood at 56 nM.

In turn, `c1ccc(CN[C@H]2C3CCN(CC3)[C@H]2C(c2ccccc2)c2ccccc2)cc1` gave an IC50 of 110 nM.
